Measurements reported in publication PMC11472058, “Trinucleotide cap analogs with triphosphate chain modifications: synthesis, properties, and evaluation as mRNA capping reagents” (Nucleic Acids Research, 2024).

Tests used:
Human Dcp2 = target: T1, Human Dcp2 (Homo sapiens, UniProt Q8IU60); test: RNA decapping assay with recombinant hDcp2; assay type: biochemical; conditions: for Susceptibility to hDcp2 (@30 min): fraction of decapped RNA after 30 min of incubation with hDcp2, 27-nt RNA capped with the analog, 37 °C, triplicates ± SD
T1 construct: made in house; host or cells: E. coli
Description: Human Dcp2 was expressed in E. coli and purified as described previously ([52]). Short 27 nt-capped RNAs (24.2 ng) were diluted with decapping buffer (50 mM Tris–HCl pH 8.0, 50 mM NH4Cl, 0.01% NP-40, 1 mM DTT, 5 mM MgCl2 and 2 mM MnCl2; 2.9 μl of freshly prepared 10 × Buffer) and the final volume was adjusted to 29 μl with ultrapure RNase free water. 4.2 ng (5 μl) of the solution was taken out as time zero reference and diluted with 5 μl loading dye (5 M urea, 44% formamide, 20 mM EDTA, 0.03% bromophenol blue, 0.03% xylene cyanol). The remaining RNAs (20 ng/24 μl) were subjected to 10 nM hDcp2 (250 nM, 1 μl) and the mixtures were incubated at 37°C for 1 h. At defined time points (5, 15, 30 and 60 min), 4 ng of RNA (5 μl) were taken out and the reactions were quenched by adding an equal volume of loading dye. RNAs were resolved electrophoretically on denaturing 15% acrylamide:bisacrylamide 19:1/7 M urea/1 × TBE gel, stained with SYBR Gold (Invitrogen) and visualized using a Typhoon FLA 9500 (GE Healthcare). The decapping progress was determined for each time point by densitometry analysis of the gels, as a ratio between the intensity of the band corresponding to capped RNA and the sum of the intensity of bands from capped and uncapped RNAs. The percentages of remaining capped RNA were then plotted as a function of time.
The RNAs used to determine the capping efficiencies were also useful to study the susceptibility of capped RNA to decapping by hDcp2, the catalytic subunit of the major human mRNA decapping complex Dcp1/Dcp2, which releases m^7GDP and 5′-monophosphorylated RNA (in this case the 26-nt pApG-RNA24; Figure 4C). The progress of decapping at different time points (5, 15, 30 and 60 min) was monitored by HR-PAGE followed by densitometric analysis of the gels (Figure 4C, triplicates of gels are shown in Supplementary Figure S2), and the fraction of remaining capped RNA (27-nt) was plotted as a function of time (Figure 4D-G). […] For better visualization, the data of modified capped RNAs were grouped according to the type of modification present at the 5′ end and presented in separate graphs (Figure 4E–G). To quantify the relative susceptibility to hDcp2, we compared the decapping levels at the 30 min time point (Table 1). For RNAs capped with β-S-triphosphate analogs (1–6, Figure 4E, Table 1), we observed a significant difference in susceptibility to hDcp2 between RP and SP isomers, independent of the methylation pattern.

human eIF4E1a = target: T2, human eIF4E1a (Homo sapiens, UniProt P06730); test: Fluorescence quenching titration (FQT) binding assay with eIF4E; conditions: for Kd: fluorescence quenching titration, 20 °C, pH 7.2, average of triplicates ± SD, read-out: heIF4E1a KD
T2 construct: made in house; host or cells: E. coli Rosetta 2 (DE3)pLysS
Description: The human eIF4E1a protein was expressed without affinity tag in E. coli Rosseta 2 (DE3)pLysS strain (Novagen) under conditions leading to accumulation of the produced protein in inclusion bodies ([48]). The protein was extracted from inclusion bodies with buffer containing 6 M guanidine hydrochloride, refolded by one-step dialysis against 50 mM HEPES/KOH (pH 7.2), 100 mM KCl, 0.5 mM EDTA, 2 mM DTT, and purified by ion exchange chromatography on HiTrap SP HP 5 ml column (GE Healthcare) using salts gradient. Finally, protein was filtered using Ultrafree MC-HV Centrifugal PVDF filters with 0.45 μm membrane pore (Millipore) to remove protein aggregates and its concentration was determined spectrophotometrically assuming the theoretical extinction coefficient ϵ280nm = 52 940 L mol^−1cm^−1—calculated from amino acid composition using algorithm on ExPASy Server.
Fluorescence titration measurements were carried out on a LS-55 spectrofluorometer (Perkin Elmer Co., Norwalk, CT, USA) in a quartz semi-micro cuvette (Hellma, Germany) with optical lengths 4 mm and 10 mm for absorption and emission, respectively, which was thermostated at 20.0 ± 0.2 °C. The titrations were performed in 50 mM Hepes/KOH pH 7.2, 100 mM KCl, 0.5 mM EDTA and 1 mM DTT by adding 1 μl aliquots of increasing concentrations of the cap solutions to 1.4 ml of 0.1 μM eIF4E1a solution. The eIF4E1a fluorescence was excited at 280 nm and the fluorescence intensity was monitored at a single wavelength 340 nm. The measured fluorescence intensities were corrected for dilution (<4%) and for the inner filter effect. Association equilibrium constants (Kas) were obtained by fitting the theoretical curve for fluorescence intensity (F) upon total concentration of cap analogs ([L]) to the titration data according to the equation: […]
with the concentration of the cap analogs–eIF4E1a complex [cx] given by:
where Δϕ stands for the difference between the fluorescence efficiencies of the apo- and cap analog bound proteins; ϕlig-free is the fluorescence efficiency of the free cap analog; F(0) is the initial fluorescence, and Pact is the total concentration of the active protein ([49]). The final KAS values were calculated as a weighted average from three independent titrations and represented as the KD values. Numerical least-squares nonlinear regression analysis was performed using ORIGIN 2021 from Microcal Software Inc., USA.
Recognition of the mRNA 5′ cap by translation initiation factor 4E (eIF4E) is considered to be the rate-limiting step for the entire translation process ([63],[64]), therefore we investigated the affinity of novel trinucleotide cap analogs to the canonical human eIF4E1a protein by fluorescence quenching titration (FQT; Table 1 column 1, Figure 3) ([65]). As a reference, we determined the dissociation constant between heIF4E1a and the trinucleotide cap-1 structure m^7GpppAmpG, which was equal to 42 nM and very close to the analogous value previously determined for mouse Δ27NeIF4E (46 nM) ([12]). In the case of all modifications tested, the KD values for cap-heIF4E1a complexes are consistent with the results previously obtained for dinucleotide counterparts and murine eIF4E protein, although the magnitude of the modification effect is generally lower. The most tightly bound tetraphosphate analogs (compounds 10–12) show KD values of 6–7 nM, which means that their affinity is about 6-fold higher compared to the triphosphate counterparts. The affinities decrease upon CH2 or CCl2 modification of the tetraphosphate bridge (compounds 13–16), but they are still 4–5 times higher than for the triphosphate analogs with the same adenosine methylation pattern.

T2 sequence (P06730 whole entry): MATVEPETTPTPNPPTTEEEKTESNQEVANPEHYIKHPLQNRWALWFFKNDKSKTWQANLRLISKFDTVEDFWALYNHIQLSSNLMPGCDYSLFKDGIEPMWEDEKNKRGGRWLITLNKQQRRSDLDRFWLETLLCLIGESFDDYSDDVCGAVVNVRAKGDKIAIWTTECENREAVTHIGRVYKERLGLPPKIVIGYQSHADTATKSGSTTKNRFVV

Compound	Susceptibility to hDcp2 (@30 min) (Human Dcp2)	Kd (human eIF4E1a)	effect of modification on binding affinity for heIF4E1a (in words) (human eIF4E1a; compared to corresponding triphosphates)	susceptibility of capped RNA to decapping by hDcp2 (in words) (Human Dcp2; 27-nt capped RNA, up to 60 min)
C[n+]1cn([C@@H]2O[C@H](COP(=O)(O)O[P@@](=O)([S-])OP(=O)(O)OC[C@H]3O[C@@H](n4cnc5c(N)ncnc54)[C@H](O)[C@@H]3OP(=O)(O)OC[C@H]3O[C@@H](n4cnc5c(=O)[nH]c(N)nc54)[C@H](O)[C@@H]3O)[C@@H](O)[C@H]2O)c2nc(N)nc(O)c21 [Compound 1, m^7GppSpApG]	0.81 ± 0.16	12.6 ± 0.8 nM		
C[n+]1cn([C@@H]2O[C@H](COP(=O)(O)O[P@](=O)([S-])OP(=O)(O)OC[C@H]3O[C@@H](n4cnc5c(N)ncnc54)[C@H](O)[C@@H]3OP(=O)(O)OC[C@H]3O[C@@H](n4cnc5c(=O)[nH]c(N)nc54)[C@H](O)[C@@H]3O)[C@@H](O)[C@H]2O)c2nc(N)nc(O)c21 [Compound 2, m^7GppSpApG]	0.31 ± 0.09	15.9 ± 0.9 nM		
COC1C(OP(=O)(O)OCC2OC(n3cnc4c(=O)[nH]c(N)nc43)C(O)C2O)C(COP(=O)(O)OP(=O)([S-])OP(=O)(O)OCC2OC(n3c[n+](C)c4c(O)nc(N)nc43)C(O)C2O)OC1n1cnc2c(N)ncnc21 (stereo not shown) [Compound 3, m^7GppSpAmpG]	0.82 ± 0.09	14 ± 0.8 nM		
COC1C(OP(=O)(O)OCC2OC(n3cnc4c(=O)[nH]c(N)nc43)C(O)C2O)C(COP(=O)(O)OP(=O)([S-])OP(=O)(O)OCC2OC(n3c[n+](C)c4c(O)nc(N)nc43)C(O)C2O)OC1n1cnc2c(N)ncnc21 (stereo not shown) [Compound 4, m^7GppSpAmpG]	0.32 ± 0.10	16.6 ± 1.1 nM		
CNc1ncnc2c1ncn2[C@@H]1O[C@H](COP(=O)(O)O[P@@](=O)([S-])OP(=O)(O)OC[C@H]2O[C@@H](n3c[n+](C)c4c(O)nc(N)nc43)[C@H](O)[C@@H]2O)[C@@H](OP(=O)(O)OC[C@H]2O[C@@H](n3cnc4c(=O)[nH]c(N)nc43)[C@H](O)[C@@H]2O)[C@H]1OC [Compound 6, m^7GppSp^m6AmpG]	0.15 ± 0.10	21.7 ± 0.6 nM		
C[n+]1cn([C@@H]2O[C@H](COP(=O)(O)OP(=O)(O)OP(=O)([O-])SC[C@H]3O[C@@H](n4cnc5c(N)ncnc54)[C@H](O)[C@@H]3OP(=O)(O)OC[C@H]3O[C@@H](n4cnc5c(=O)[nH]c(N)nc54)[C@H](O)[C@@H]3O)[C@@H](O)[C@H]2O)c2nc(N)nc(O)c21 [Compound 7, m^7Gppp^5’SApG]	0.60 ± 0.15	31.4 ± 1.9 nM	virtually no effect on binding affinity	
CO[C@@H]1[C@H](OP(=O)(O)OC[C@H]2O[C@@H](n3cnc4c(=O)[nH]c(N)nc43)[C@H](O)[C@@H]2O)[C@@H](COP(=O)([O-])OP(=O)(O)CP(=O)(O)OP(=O)(O)OC[C@H]2O[C@@H](n3c[n+](C)c4c(O)nc(N)nc43)[C@H](O)[C@@H]2O)O[C@H]1n1cnc2c(N)ncnc21 [Compound 16, m^7GppCH2ppAmpG]	0.27 ± 0.07	12.1 ± 0.5 nM		significantly reduced the susceptibility to decapping
